# Where two headings read alike, the source gives them in different places.
# Assays:
# [1] = target: T1, human galectin-1 (Gal-1, full length) (Homo sapiens, UniProt P09382); experiment: Competitive fluorescence polarization assay, Gal-1; format: binding
# T1 construct: Gal-1 is a prototype galectin consisting of a single CRD and was used in full length; 6xHis tag with TEV protease site (N, cleaved yes); made in house; host or cells: BL21 Escherichia coli (pET-15b)
# Description: (§1) Our investigation of the structure–activity relationship of N-aryl-N-lactosylamides started with an initial screening of substituted acetanilides (Table ). These compounds can be readily synthesized from a wide range of commercially available substituted anilines. Affinity was evaluated using a fluorescence polarization assay, which enables reliable determination of dissociation constants (K d) between small molecules and galectins. All inhibitors in this series were tested against the two most common human galectins: Gal-1 and Gal-3. Gal-1 is a prototype galectin consisting of a single CRD and was used in full length. In the case of Gal-3, which consists of the C-terminal CRD and N-terminal unfolded region, only the C-terminal domain was used (Gal-3C). Affinities were compared to methyl β-lactoside (β-LacOMe) as a baseline.
# (§2) Fluorescence polarization experiments for determining inhibitor affinities were performed using the same instrumentation and settings as described for the direct binding experiments. […] The galectin–probe mixture was subsequently added using a Certus Flex liquid handler (Fritz Gyger AG, Switzerland) to reach a final volume of 5 μL. Anisotropy was measured after 30–60 min incubation at 25 °C. Inhibitor dissociation constants (K d) were calculated using Wang’s exact cubic model for competitive binding implemented in the BindCurve package. Protein and probe concentrations used in these competitive experiments are provided in the Supporting Information.
# (§3) Competitive binding was modeled by Wang’s exact cubic model,3 which is written as […]
# (§4) r = rmin + (rmax − rmin) 3 (6) […]
# (§5) where r, rmin and rmax have the same meaning as in Equation 1. The coefficients a, b, and c are […]
# (§6) a = Kd∗ + Kd + [L∗]T + [L]T − [R]T (7) b = Kd∗([L]T − [R]T) + Kd([L∗]T − [R]T) + Kd∗ Kd (8) […]
# (§7) where Kd∗ is the dissociation constant of the probe, Kd is the dissociation constant of the […]
# (§8) the unlabeled ligand, and [R]T is the total concentration of the receptor. The angle θ is defined […]
# (§9) In the competitive binding experiments, the values of [L∗]T, [R]T and Kd∗ are known and [L]T is titrated. The values of minimal and maximal anisotropy rmin and rmax were fixed during fitting at the values of the minimal and maximal asymptotes obtained from the direct binding experiments. The value of Kd was calculated as the only unfixed parameter in the model.
# (§10) Experimental constants used for the competitive fluorescence polarization experiments are […]
# (§11) Table S2. Experimental constants used for competitive fluorescence polarization experiments. […]
# [2] = target: T2, human galectin-3C (Gal-3C, C-terminal CRD of galectin-3) (Homo sapiens, UniProt P17931); experiment: Competitive fluorescence polarization assay, Gal-3C; format: binding
# T2 construct: only the C-terminal domain was used (Gal-3C); 6xHis tag with TEV protease site (N, cleaved yes); made in house; host or cells: BL21 Escherichia coli (pET-15b)
# Description: as §1, §2, §3, §4, §5, §6, §7, §8, §9, §10, §11
# [3] = CSV supplement, unrounded mean, read-out: Gal1_IC50_mean_uM
# [4] = CSV supplement, unrounded mean, read-out: Gal1_Kd_mean_uM
# [5] = competitive fluorescence polarization, mean ± SD, read-out: Kd Gal-1
# [6] = four-parameter logistic model, mean ± SD, read-out: IC50 Gal-1
# [7] = CSV supplement, unrounded mean, read-out: Gal3C_IC50_mean_uM
# [8] = CSV supplement, unrounded mean, read-out: Gal3C_Kd_mean_uM
# [9] = competitive fluorescence polarization, mean ± SD, read-out: Kd Gal-3C
# [10] = four-parameter logistic model, mean ± SD, read-out: IC50 Gal-3C
# T1 sequence (P09382 2-135): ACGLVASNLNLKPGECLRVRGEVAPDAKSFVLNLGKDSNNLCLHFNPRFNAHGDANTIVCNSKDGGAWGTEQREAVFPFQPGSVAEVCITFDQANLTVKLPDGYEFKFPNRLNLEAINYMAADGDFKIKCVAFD
# T2 sequence (P17931 118-248 limits assumed): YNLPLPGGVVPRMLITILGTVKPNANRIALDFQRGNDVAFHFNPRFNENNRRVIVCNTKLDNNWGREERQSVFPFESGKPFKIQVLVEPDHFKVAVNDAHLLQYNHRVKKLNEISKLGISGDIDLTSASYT
SMILES,"IC50 [1, 3] [µM]","Kd [1, 4] [µM]","Kd [1, 5] [µM]","IC50 [1, 6] [µM]","IC50 [2, 7] [µM]","Kd [2, 8] [µM]","Kd [2, 9] [µM]","IC50 [2, 10] [µM]",decrease of affinity toward Gal-3C compared to 3r ([2]; compared to 3r) [fold]
"CC(C)C(=O)N(c1cccc(C(=O)O)c1)[C@@H]1O[C@H](CO)[C@@H](O[C@@H]2O[C@H](CO)[C@H](O)[C@H](O)[C@H]2O)[C@H](O)[C@H]1O [Compound 3s, N-[4-O-(β-D-Galactopyranosyl)-β-D-glucopyranosyl]-N-(3-carboxyphenyl)-2-methylpropanamide]",1800,1000,1000 ± 300,1800 ± 200,113,39.5,39 ± 4,110 ± 0.2,
"O=C(O)c1cccc(N(C(=O)c2ccccc2)[C@@H]2O[C@H](CO)[C@@H](O[C@@H]3O[C@H](CO)[C@H](O)[C@H](O)[C@H]3O)[C@H](O)[C@H]2O)c1 [Compound 3t, N-[4-O-(β-D-Galactopyranosyl)-β-D-glucopyranosyl]-N-(3-carboxyphenyl)benzamide]",1310,841,840 ± 80,1300 ± 30,120,51.3,51 ± 10,120 ± 9,
"O=C(O)c1cccc(N(C(=O)Cc2ccccc2)[C@@H]2O[C@H](CO)[C@@H](O[C@@H]3O[C@H](CO)[C@H](O)[C@H](O)[C@H]3O)[C@H](O)[C@H]2O)c1 [Compound 3u, N-[4-O-(β-D-Galactopyranosyl)-β-D-glucopyranosyl]-N-(3-carboxyphenyl)-2-phenylacetamide]",2150,1240,1200 ± 10,2100 ± 800,133,53.6,54 ± 6,130 ± 20,
"COC(=O)c1cccc(N(C(C)=O)[C@@H]2O[C@H](CO)[C@@H](O[C@@H]3O[C@H](CO)[C@H](O)[C@H](O)[C@H]3O)[C@H](O)[C@H]2O)c1 [Compound 3v, N-[4-O-(β-D-Galactopyranosyl)-β-D-glucopyranosyl]-N-[3-(methylcarboxy)phenyl]acetamide]",655,432,430 ± 30,660 ± 100,241,94.6,95 ± 40,240 ± 30,
"CNC(=O)c1cccc(N(C(C)=O)[C@@H]2O[C@H](CO)[C@@H](O[C@@H]3O[C@H](CO)[C@H](O)[C@H](O)[C@H]3O)[C@H](O)[C@H]2O)c1 [Compound 3w, N-[4-O-(β-D-Galactopyranosyl)-β-D-glucopyranosyl]-N-[3-(methylcarbamoyl)phenyl]acetamide]",666,445,440 ± 100,670 ± 90,220,88.1,88 ± 20,220 ± 6,
"CC(=O)N(c1cccc(CO)c1)[C@@H]1O[C@H](CO)[C@@H](O[C@@H]2O[C@H](CO)[C@H](O)[C@H](O)[C@H]2O)[C@H](O)[C@H]1O [Compound 3x, N-[4-O-(β-D-Galactopyranosyl)-β-D-glucopyranosyl]-N-[3-(hydroxymethyl)phenyl]acetamide]",842,542,540 ± 60,840 ± 90,273,106,110 ± 30,270 ± 0.9,2
"CC(=O)N(c1cccc(-c2nnn[nH]2)c1)[C@@H]1O[C@H](CO)[C@@H](O[C@@H]2O[C@H](CO)[C@H](O)[C@H](O)[C@H]2O)[C@H](O)[C@H]1O [Compound 3y, N-[4-O-(β-D-Galactopyranosyl)-β-D-glucopyranosyl]-N-[3-(1H-tetrazol-5-yl)phenyl]acetamide]",1260,812,810 ± 200,1300 ± 100,123,48.8,49 ± 20,120 ± 9,
"CC(=O)N(c1cccc(-c2ccc(C)o2)c1)[C@@H]1O[C@H](CO)[C@@H](O[C@@H]2O[C@H](CO)[C@H](O)[C@H](O)[C@H]2O)[C@H](O)[C@H]1O [Compound 3z, N-[4-O-(β-D-Galactopyranosyl)-β-D-glucopyranosyl]-N-[3-(5-methylfuran-2-yl)phenyl]acetamide]",860,558,560 ± 80,860 ± 100,327,121,120 ± 30,330 ± 1,

# — paper PMC12670426 (Journal of Medicinal Chemistry, 2025)
